From article PMC11767586, “Cuphea hookeriana: Phytochemical Profile and the Cosmeceutical and Dermatological Properties of Its Active Fraction from the Whole Plant” (Molecules, 2025)
Values after ≈ are worked out from the molar mass of the structure shown.

Biological target: T1, mushroom tyrosinase
T1 construct: gene PPO1
Assay: L-dopa oxidation, absorbance at […] nm
Format: biochemical
Details: L-dopa 2 mM stock, phosphate pH 6.8, 37 °C, 30 min; positive control

For `OC[C@H]1O[C@H](Oc2ccc(O)cc2)[C@H](O)[C@@H](O)[C@@H]1O` [α-arbutin], the IC50 was 270 µg/mL (≈ 992 µM).
